Data reported in patent US12186297B2, “Compositions and methods for increasing lean-to-fat mass ratio” (AXCESS GLOBAL SCIENCES, LLC, priority 2020, dated 2025).

Experiment: Expected change in fat mass, muscle mass and lean-to-fat mass ratio in subjects following a training regimen (FIGS. 3, 4A-4C)
Assay type: in vivo
Details: FIG. 4A, set period of time (e.g., 1-3 months)
From the text: FIG. 4A illustrates expected change in fat mass over a set period of time (e.g., 1-3 months) for subjects following a training regimen and given different treatments of HMB only (HMB), BHB only (BHB), and a combination of the same amounts of HMB and BHB (HMB+BHB).
FIG. 4B illustrates expected change in muscle mass over a set period of time (e.g., 1-3 months) for subjects following a training regimen and given different treatments of HMB only (HMB), BHB only (BHB), and a combination of the same amounts of HMB and BHB (HMB+BHB).

**Q.** Which “expected change in fat mass” value does the source give for `CC(C)(O)CC(=O)O` [HMB, beta-hydroxy-beta-methylbutyrate] here?
**A.** not expected to provide fat loss to any significant degree by itself
